In ChEMBL document CHEMBL4130359, “Indazole-based ligands for estrogen-related receptor α as potential anti-diabetic agents” (Eur J Med Chem, 2017):
The source made the active and inactive calls. No cut-off for these calls is given here.

How the values were obtained:
[1] = molecular target: Peroxisome proliferator-activated receptor gamma (Homo sapiens, UniProt P37231); assay: Inhibition of fluormone PPARgamma Green binding to recombinant N-terminal GST-tagged human PPARgamma LBD by fluorescence polarization assay
Chain of Peroxisome proliferator-activated receptor gamma (P37231 whole entry, the tested form may be a part): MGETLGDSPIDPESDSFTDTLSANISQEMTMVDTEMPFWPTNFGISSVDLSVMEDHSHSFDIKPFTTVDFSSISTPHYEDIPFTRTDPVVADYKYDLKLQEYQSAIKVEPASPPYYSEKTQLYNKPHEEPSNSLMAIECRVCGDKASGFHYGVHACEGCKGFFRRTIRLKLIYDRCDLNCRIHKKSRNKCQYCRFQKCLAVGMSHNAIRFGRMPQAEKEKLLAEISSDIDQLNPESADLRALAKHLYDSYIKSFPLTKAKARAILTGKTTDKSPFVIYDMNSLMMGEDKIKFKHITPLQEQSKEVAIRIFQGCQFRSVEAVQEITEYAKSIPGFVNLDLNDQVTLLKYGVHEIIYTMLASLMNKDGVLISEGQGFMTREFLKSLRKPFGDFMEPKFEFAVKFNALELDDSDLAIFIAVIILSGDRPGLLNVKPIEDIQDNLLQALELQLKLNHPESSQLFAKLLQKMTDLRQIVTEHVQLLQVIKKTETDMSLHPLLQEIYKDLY

[2] = test system: Rattus norvegicus; assay: Effect on ME1 gene expression in epididymal white adipose tissue of Zucker rat sub-chronic fa/fa prediabetic model at 10 mg/kg, po qd for 15 days by microarray analysis relative to control; type: functional
[3] = test system: Rattus norvegicus; assay: Toxicity in Zucker rat sub-chronic fa/fa prediabetic model assessed as increase in body weight at 10 mg/kg, po qd during 10 days study; type: organism-based; conditions: in vivo, 240 h
[4] = AUC (0 to 24 hrs) in CD-1 mouse at 20 mg/kg administered via oral gavage by LC-MS analysis; type: ADME, organism-based; design: dose 20 mg/kg, time < 24 hr, route oral; conditions: in vivo
[5] = test system: Rattus norvegicus; assay: Antidiabetic activity in Zucker rat sub-chronic fa/fa prediabetic model assessed as blood insulin AUC (0 to 120 min) at 1 mg/kg, po qd for 31 days measured on day 29 post dose (reference value: 1503 +/- 160 ug.min/L); type: functional, organism-based; design: time < 2 hr, dose 1 mg/kg
[6] = test system: Rattus norvegicus; assay: Antidiabetic activity in […] model assessed as HbA1C level at 3 mg/kg, po qd for 31 days measured on day 32 post dose (reference value: 5.9 +/- 0.18%); type: functional
[7] = test system: Rattus norvegicus; assay: Toxicity in Zucker rat sub-chronic fa/fa prediabetic model assessed as heart weight at 50 mg/kg, po qd for 31 days measured on day 32 (reference value: 1.19 +/- 0.04 g); type: organism-based; conditions: in vivo, 744 h
[8] = test system: Rattus norvegicus; assay: Effect on NFKBIB gene expression in epididymal white adipose tissue of Zucker rat sub-chronic fa/fa prediabetic model at 10 mg/kg, po qd for 15 days by microarray analysis relative to control; type: functional
[9] = Half life in Sprague-Dawley rat at 2 mg/kg, iv by LC-MS analysis; type: ADME, organism-based; conditions: in vivo
[10] = test system: Rattus norvegicus; assay: Toxicity in […] model assessed as liver weight at 3 mg/kg, po qd for 31 days measured on day 32 (reference value: 2.77 +/- 0.16 g); type: organism-based; conditions: in vivo, 744 h
[11] = test system: Rattus norvegicus; assay: Increase in ANGPTL4 mRNA expression in epididymal white adipose tissue of Zucker rat sub-chronic fa/fa prediabetic model at 10 mg/kg, po qd for 15 days by RT-PCR method; type: functional, organism-based
[12] = test system: Rattus norvegicus; assay: Effect on ACOT2 gene expression in epididymal white adipose tissue of Zucker rat sub-chronic fa/fa prediabetic model at 10 mg/kg, po qd for 15 days by microarray analysis relative to control; type: functional
[13] = test system: Rattus norvegicus; assay: Effect on PFKFB1 gene expression in epididymal white adipose tissue of Zucker rat sub-chronic fa/fa prediabetic model at 10 mg/kg, po qd for 15 days by microarray analysis relative to control; type: functional
[14] = Cmax in CD-1 mouse at 20 mg/kg administered via oral gavage by LC-MS analysis; type: ADME, organism-based; design: dose 20 mg/kg, route oral; conditions: in vivo
[15] = test system: Rattus norvegicus; assay: Toxicity in Zucker rat sub-chronic fa/fa prediabetic model assessed as serum ALT level at 3 mg/kg, po qd for 31 days measured on day 32 (reference value: 151 +/- 23 U/L); type: organism-based; conditions: in vivo, 744 h
[16] = Clearance in Sprague-Dawley rat at 2 mg/kg, iv by LC-MS analysis; type: ADME, organism-based; conditions: in vivo
[17] = test system: Rattus norvegicus; assay: Toxicity in Zucker rat sub-chronic fa/fa prediabetic model assessed as serum AST level at 50 mg/kg, po qd for 31 days measured on day 32 (reference value: 187 +/- 37 U/L); type: organism-based; conditions: in vivo, 744 h
[18] = Cmax in […] chronic ob/ob model at 50 mg/kg, po qd measured on day 1 post dose; type: ADME, organism-based; design: dose 50 mg/kg, route oral; conditions: in vivo
[19] = test system: Rattus norvegicus; assay: Effect on NDUFA6 gene expression in epididymal white adipose tissue of Zucker rat sub-chronic fa/fa prediabetic model at 10 mg/kg, po qd for 15 days by microarray analysis relative to control; type: functional
[20] = test system: Rattus norvegicus; assay: Toxicity in Zucker rat sub-chronic fa/fa prediabetic model assessed as body weight at 10 mg/kg, po qd for 29 days measured on day 29 post last dose (reference value: 533 +/- 10 g); type: organism-based; conditions: in vivo, 696 h
[21] = Cmax in […] at 15 mg/kg administered via oral gavage by LC-MS analysis; type: ADME, organism-based; design: dose 15 mg/kg, route oral; conditions: in vivo
[22] = test system: Rattus norvegicus; assay: Effect on TXNRD2 gene expression in epididymal white adipose tissue of Zucker rat sub-chronic fa/fa prediabetic model at 10 mg/kg, po qd for 15 days by microarray analysis relative to control; type: functional
[23] = test system: Rattus norvegicus; assay: Toxicity in Zucker rat sub-chronic fa/fa prediabetic model assessed as serum ALT level at 10 mg/kg, po qd for 31 days measured on day 32 (reference value: 151 +/- 23 U/L); type: organism-based; conditions: in vivo, 744 h
[24] = test system: Rattus norvegicus; assay: Toxicity in Zucker rat sub-chronic fa/fa prediabetic model assessed as food intake at 50 mg/kg, po qd for 29 days measured on day 1 to 29 during compound dosing (reference value: 969 +/- 18 g); type: organism-based; conditions: in vivo, 696 h
[25] = test system: Rattus norvegicus; assay: Antidiabetic activity in Zucker rat sub-chronic fa/fa prediabetic model assessed as increase in serum adiponectin level at 50 mg/kg, po qd for 4 days by ELISA relative to control; type: functional
[26] = test system: Rattus norvegicus; assay: Effect on ATP5C1 gene expression in epididymal white adipose tissue of Zucker rat sub-chronic fa/fa prediabetic model at 10 mg/kg, po qd for 15 days by microarray analysis relative to control; type: functional
[27] = AUC (0 to 24 hrs) in Zucker rat sub-chronic fa/fa prediabetic model at 1 mg/kg, po qd measured on day 1 post dose; type: ADME, organism-based; design: time < 24 hr, dose 1 mg/kg, route oral; conditions: in vivo
[28] = test system: Rattus norvegicus; assay: Toxicity in […] model assessed as serum BUN level at 10 mg/kg, po qd for 31 days measured on day 32 (reference value: 28.3 +/- […]); type: organism-based; conditions: in vivo, 744 h
[29] = test system: Rattus norvegicus; assay: Effect on CPT2 gene expression in epididymal white adipose tissue of Zucker rat sub-chronic fa/fa prediabetic model at 10 mg/kg, po qd for 15 days by microarray analysis relative to control; type: functional
[30] = test system: Rattus norvegicus; assay: Toxicity in […] model assessed as serum cholesterol level at 10 mg/kg, po qd for 31 days measured on day 32 (reference value: 195 +/- 5.5 mg/dl); type: organism-based; conditions: in vivo, 744 h
[31] = test system: Rattus norvegicus; assay: Toxicity in Zucker rat sub-chronic fa/fa prediabetic model assessed as food intake at 10 mg/kg, po qd for 29 days measured on day 1 to 29 during compound dosing (reference value: 969 +/- 18 g); type: organism-based; conditions: in vivo, 696 h
[32] = test system: Rattus norvegicus; assay: Effect on TNF gene expression in epididymal white adipose tissue of Zucker rat sub-chronic fa/fa prediabetic model at 10 mg/kg, po qd for 15 days by microarray analysis relative to control; type: functional
[33] = test system: Rattus norvegicus; assay: Toxicity in […] chronic ob/ob model assessed as change in body weight at 10 mg/kg, po qd for 28 days measured on day 1 to 28 during compound dosing (reference value: 9.9 +/- 1.27 g); type: organism-based; conditions: in vivo, 672 h
[34] = test system: Rattus norvegicus; assay: Effect on NDUFV3 gene expression in epididymal white adipose tissue of Zucker rat sub-chronic fa/fa prediabetic model at 10 mg/kg, po qd for 15 days by microarray analysis relative to control; type: functional

With CN1CC[C@@H](N2C(=O)S/C(=C\c3ccc4c(cnn4Cc4ccc(Cl)cc4C(F)(F)F)c3)C2=O)[C@H](F)C1 the IC50 [1] was greater than 10 µM, the “fold change (FC)” value [2] was 2.409 and the Activity [3] was “Non-Toxic”. For the same compound, the AUC(0-t) at 24 h [4] was 14600 ng·h/mL, the AUC [5] was 16.6 ng·h/mL and the Activity [6] was 5.7%. The Activity [7] was 1.19 g, the “fold change (FC)” value [8] was 1.31 and the half-life [9] was 6 h. For the same compound, the Activity [10] was 2.65 g, the Activity [11] was “Active” and the “fold change (FC)” value [12] was 1.364. For the same compound, the “fold change (FC)” value [13] was 1.634, the Cmax [14] was 2000 ng/mL and the Activity [15] was 117 U/L. The clearance [16] was 23 mL/min/kg, the Activity [17] was 87 U/L and the Cmax [18] was 2680 ng/mL. For the same compound, the “fold change (FC)” value [19] was 1.277, the Activity [20] was 551 g and the Cmax [21] was 4020 ng/mL. The “fold change (FC)” value [22] was 1.311, the Activity [23] was 122 U/L and the Activity [24] was 1049 g. For the same compound, the “fold change (FC)” value [25] was 1.9, the “fold change (FC)” value [26] was 1.239 and the AUC(0-t) at 24 h [27] was 1760 ng·h/mL. The Activity [28] was 28.7 mg/dL, the “fold change (FC)” value [29] was 2.352 and the Activity [30] was 164 mg/dL. For the same compound, the Activity [31] was 1060 g, the “fold change (FC)” value [32] was -1.24 and the Activity [33] was 8.7 g. The “fold change (FC)” value [34] was 1.257.
